# Test results published in patent US20190375708A1 (VenatoRx Pharmaceuticals, Inc., priority 2018, published 2019).
# Legend:
# [1] = test system: HBV replication in HepAD38 cells; test: Anti-HBV replication assay in HepAD38 cells (QPCR of extracellular HBV DNA); type: cell-based, HBV (genotype D, serotype ayw); conditions: Hepatitis B virus, 168 h, 7 days incubation, extracellular HBV DNA by QPCR, read-out: Anti-HBV EC50
# How it was run: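 Steps: seed HepAD38 overnight without tetracycline; refresh medium and add 1 log10 serial dilutions ([…]); incubate 7 days at 37 °C; quantify supernatant HBV DNA by QPCR; derive EC50 from a 4-parameter dose-response fit.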
# [2] = In vitro cytotoxicity assay (MTT cell viability) in HepG2 cells; type: cell-based, human; conditions: human
# How it was run: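 HepG2 seeded overnight, then 7-day compound exposure (30 μM–1.0 nM, half-log steps), 37 °C. MTT 3-4 h, DMSO solubilization, A492. % of vehicle → CC50, 4-PL fit.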
structure (smiles),measurement,setting,value
"Cc1noc([C@H](C)NC(=O)C(=O)c2c(C)c(C(=O)Nc3cnc(F)c(C)c3)c3n2CCCC3)n1 [Example 471, (S)-N-(6-fluoro-5-methylpyridin-3-yl)-2-methyl-3-(2-((1-(3-methyl-1,2,4-oxadiazol-5-yl)ethyl)amino)-2-oxoacetyl)-5,6,7,8-tetrahydroindolizine-1-carboxamide]",EC50,[1],0.5 to 1 µM
same,CC50 at 7 days,[2],> 30 µM
"Cc1cc(NC(=O)c2c(C)c(C(=O)C(=O)NC3(C)CCN(c4nccs4)CC3)n(C)c2C)ccc1F [Example 699, N-(4-fluoro-3-methylphenyl)-1,2,4-trimethyl-5-(2-((4-mmethyl-1-(thiazol-2-yl)piperidin-4-yl)amino)-2-oxoacetyl)-1H-pyrrole-3-carboxamide]",EC50,[1],< 0.05 µM
same,CC50 at 7 days,[2],5 to 30 µM
"CO[C@H]1CC[C@@H](NC(=O)C(=O)c2c(C)c(C(=O)Nc3ccnc(Cl)c3)c(C)n2C)CC1 [Example 345, N-(2-chloropyridin-4-yl)-5-(2-(((1s,4s)-4-methoxycyclohexyl)amino)-2-oxoacetyl)-1,2,4-trimethyl-1H-pyrrole-3-carboxamide]",EC50,[1],< 0.05 µM
same,CC50 at 7 days,[2],> 30 µM
"Cc1cc(NC(=O)c2c(C)c(C(=O)C(=O)NC(C)(C)C)n3c2CCCC3)ccc1F [Example 434, 3-(2-(tert-butylamino)-2-oxoacetyl)-N-(4-fluoro-3-methylphenyl)-2-methyl-5,6,7,8-tetrahydroindolizine-1-carboxamide]",EC50,[1],< 0.05 µM
same,CC50 at 7 days,[2],> 30 µM
"Cc1cc(NC(=O)c2c(C)c(C(=O)C(=O)N[C@@]3(C)CC[C@@H](O)C3)n(C)c2C)ccc1F [Example 722, N-(4-fluoro-3-methylphenyl)-5-(2-(((1S,3R)-3-hydroxy-1-methylcyclopentyl)amino)-2-oxoacetyl)-1,2,4-trimethyl-1H-pyrrole-3-carboxamide]",EC50,[1],< 0.05 µM
same,CC50 at 7 days,[2],> 30 µM
"O=C(N[C@H]1CCC[C@H]1O)C(=O)c1c(Cl)c(C(=O)Nc2ccc(F)c(F)c2)c2n1CCCC2 [Example 519, 2-chloro-N-(3,4-difluorophenyl)-3-(2-(((1S,2R)-2-hydroxycyclopentyl)amino)-2-oxoacetyl)-5,6,7,8-tetrahydroindoliznie-1-carboxamide]",EC50,[1],0.05 to 0.499 µM
same,CC50 at 7 days,[2],5 to 30 µM
"Cc1cc(NC(=O)c2c(C)c(C(=O)C(=O)NC3CC(=O)Nc4ccccc43)n(C)c2C)ccc1F (stereo not shown) [Example 626, N-(4-fluoro-3-methylphenyl)-1,2,4-trimethyl-5-(2-oxo-2-((2-oxo-1,2,3,4-tetrahdyroquinolin-4-yl)amino)acetyl)-1H-pyrrole-3-carboxamide]",EC50,[1],< 0.05 µM
same,CC50 at 7 days,[2],> 30 µM
"Cc1cc(NC(=O)C(=O)c2c(C)c(C(=O)Nc3ccc(F)c(C)c3)c(C)n2C)on1 [Example 304, N-(4-fluoro-3-methylphenyl)-1,2,4-trimethyl-5-(2-((3-methylisoxazol-5-yl)amino)-2-oxoacetyl)-1H-pyrrole-3-carboxamide]",EC50,[1],< 0.05 µM
same,CC50 at 7 days,[2],5 to 30 µM
"Cc1c(C(=O)Nc2ccn(C)n2)c2n(c1C(=O)C(=O)NC1(CO)CCC1)CCCC2 [Example 748, 3-(2-((1-(hydroxymethyl)cyclobutyl)amino)-2-oxoacetyl)-2-methyl-N-(1-methyl-1H-pyrazol-3-yl)-5,6,7,8-tetrahydroindolizine-1-carboxamide]",EC50,[1],0.05 to 0.499 µM
same,CC50 at 7 days,[2],> 30 µM
"Cc1cc(NC(=O)c2c(C)c(C(=O)C(=O)Nc3cccnc3)n(C)c2C)cnc1F [Example 339, N-(6-fluoro-5-methylpyridin-3-yl)-1,2,4-trimethyl-5-(2-oxo-2-(pyridin-3-ylamino)acetyl)-1H-pyrrole-3-carboxamide]",EC50,[1],0.5 to 1 µM
same,CC50 at 7 days,[2],> 30 µM
"O=C(NC1(CO)CC(F)(F)C1)C(=O)c1c(Cl)c(C(=O)Nc2ccc(F)c(F)c2)c2n1CCCC2 [Example 520, 2-chloro-3-(2-((3,3-difluoro-1-(hydroxymethyl)cyclobutyl)amino)-2-oxoacetyl)-N-(3,4-difluorophenyl)-5,6,7,8-tetrahydroindolizine-1-carboxamide]",EC50,[1],< 0.05 µM
same,CC50 at 7 days,[2],> 30 µM
"Cc1cc(NC(=O)c2c(C)c(C(=O)C(=O)N[C@@H]3CCC[C@H]3O)n(C)c2C)cnc1F [Example 132, N-(6-fluoro-5-methylpyridin-3-yl)-5-(2-(((1R,2R)-2-hydroxycyclopentyl)amino)-2-oxoacetyl)-1,2,4-trimethyl-1H-pyrrole-3-carboxamide]",EC50,[1],0.05 to 0.499 µM
same,CC50 at 7 days,[2],> 30 µM
"COc1c(C(=O)Nc2ccc(F)c(F)c2)c(C)n(C)c1C(=O)C(=O)N[C@H]1CC[C@@H](O)CC1 [Example 383, N-(3,4-difluorophenyl)-5-(2-(((1s,4s)-4-hydroxycyclohexyl)amino)-2-oxoacetyl)-4-methoxy-1,2-dimethyl-1H-pyrrole-3-carboxamide]",EC50,[1],0.5 to 1 µM
same,CC50 at 7 days,[2],> 30 µM
"Cc1cc(NC(=O)c2c(C)c(C(=O)C(=O)NC3CCOCC3)n(C)c2C)ccc1F [Example 247, N-(4-fluoro-3-methylphenyl)-1,2,4-trimethyl-5-(2-oxo-2-((tetrahydro-2H-pyran-4-yl)amino)acetyl)-1H-pyrrole-3-carboxamide]",EC50,[1],< 0.05 µM
same,CC50 at 7 days,[2],5 to 30 µM
"Cc1cc(NC(=O)c2c(C)c(C(=O)C(=O)NOC(C)(C)C)n(C)c2C)ccc1F [Example 70, 5-(2-(tert-butoxyamino)-2-oxoacetyl)-N-(4-fluoro-3-methylphenyl)-1,2,4-trimethyl-1H-pyrrole-3-carboxamide]",EC50,[1],< 0.05 µM
same,CC50 at 7 days,[2],> 30 µM
"O=C(NC1(CO)CC1)C(=O)c1c(Cl)c(C(=O)Nc2ccc(F)c(F)c2)c2n1CCC2 [Example 561, 6-chloro-N-(3,4-difluorohphenyl)-5-(2-((1-(hydroxymethyl)cyclopropyl)amino)-2-oxoacetyl)-2,3-dihydro-1H-pyrrolizine-7-carboxamide]",EC50,[1],< 0.05 µM
same,CC50 at 7 days,[2],> 30 µM
"Cc1cc(NC(=O)c2c(C)c(C(=O)C(=O)NC3(c4noc(C5CC5)n4)CCCC3)n(C)c2C)ccc1F [Example 637, 5-(2-((1-(5-cyclopropyl-1,2,4-oxadiazol-3-yl)cyclopentyl)amino)-2-oxoacetyl)-N-(4-fluoro-3-methylphenyl)-1,2,4-trimetthyl-1H-pyrrole-3-carboxamide]",EC50,[1],< 0.05 µM
same,CC50 at 7 days,[2],> 30 µM
"Cc1cc(NC(=O)c2c(C)c(C(=O)C(=O)N[C@H](C(=O)OC(C)(C)C)C(C)(C)C)n(C)c2C)ccc1F [Example 23, tert-butyl (S)-2-(2-(4-((4-fluoro-3-methylphenyl)carbamoyl)-1,3,5-trimethyl-1H-pyrrol-2-yl)-2-oxoacetamido)-3,3-dimethylbutanoate]",EC50,[1],0.05 to 0.499 µM
same,CC50 at 7 days,[2],> 30 µM
"Cc1c(C(=O)Nc2ccc(F)c(F)c2)c2n(c1C(=O)C(=O)NCc1cnc(N)s1)CCCC2 [Example 455, 3-(2-(((2-aminothiazol-5-yl)methyl)amino)-2-oxoacetyl)-N-(3,4-difluorophenyl)-2-methyl-5,6,7,8-tetrahydroindolizine-1-carboxamide]",EC50,[1],< 0.05 µM
same,CC50 at 7 days,[2],5 to 30 µM
"Cc1cc(NC(=O)c2c(C)c(C(=O)C(=O)Nc3cccc(B(O)O)c3)n(C)c2C)ccc1F [Example 254, (3-(2-(4-((4-fluoro-3-methylphenyl)carbamoyl)-1,3,5-trimethyl-1H-pyrrol-2-yl)-2-oxoacetamido)phenyl)boronic acid]",EC50,[1],< 0.05 µM
same,CC50 at 7 days,[2],5 to 30 µM
"Cc1cc(NC(=O)c2c(C)c(C(=O)C(=O)N[C@@H]3CCNC3=O)n(C)c2C)ccc1F [Example 672, (R)-N-(4-fluoro-3-methylphenyl)-1,2,4-trimethyl-5-(2-oxo-2-((2-oxopyrrolidin-3-yl)amino)acetyl)-1H-pyrole-3-carboxamide]",EC50,[1],< 0.05 µM
same,CC50 at 7 days,[2],> 30 µM
"Cc1csc(NC(=O)C(=O)c2c(C)c(C(=O)Nc3ccc(F)c(F)c3)c(C)n2C)n1 [Example 315, N-(3,4-difluorophenyl)-1,2,4-trimethyl-5-(2-((4-methylthiazol-2-yl)amino)-2-oxoacetyl)-1H-pyrrole-3-carboxamide]",EC50,[1],< 0.05 µM
same,CC50 at 7 days,[2],> 30 µM
"CNC(=O)[C@@H](NC(=O)C(=O)c1c(C)c(C(=O)Nc2ccc(F)c(C)c2)c(C)n1C)C(C)C [Example 108, (S)-N-(4-fluoro-3-methylphenyl)-1,2,4-trimethyl-5-(2-((3-methyl-1-(methylamino)-1-oxobutan-2-yl)amino)-2-oxoacetyl)-1H-pyrrole-3-carboxamide]",EC50,[1],< 0.05 µM
same,CC50 at 7 days,[2],0.5 to 4.99 µM
"Cc1cc(NC(=O)c2c(C)c(C(=O)C(=O)N[C@H]3CCC[C@H](O)C3)n(C)c2C)ccc1F [Example 618, N-(4-fluoro-3-methylphenyl)-5-(2-(((1S,3S)-3-hydroxycyclohexyl)amino)-2-oxoacetyl)-1,2,4-trimethyl-1H-pyrrole-3-carboxamide]",EC50,[1],< 0.05 µM
same,CC50 at 7 days,[2],> 30 µM
"Cc1cc(NC(=O)c2c(C)c(C(=O)C(=O)NC3(C(=O)N[C@H](C)C(F)(F)F)CCOCC3)n(C)c2C)ccc1F [Example 605, (R)-N-(4-fluoro-3-methylphenyl)-1,2,4-trimethyl-5-(2-oxo-2-((4-((1,1,1-trifluoropropan-2-yl)carbamoyl)tetrahydro-2H-pyran-4-yl)amino)acetyl)-1H-pyrrole-3-carboxamide]",EC50,[1],< 0.05 µM
same,CC50 at 7 days,[2],> 30 µM
"COCC(C)(C)NC(=O)C(=O)c1c(C)c(C(=O)Nc2cnc(F)c(C)c2)c(C)n1CCF [Example 226, N-(6-fluoro-5-methylpyridin-3-yl)-1-(2-fluoroethyl)-5-(2-((1-methoxy-2-methylpropan-2-yl)amino)-2-oxoacetyl)-2,4-dimethyl-1H-pyrrole-3-carboxamide]",EC50,[1],0.5 to 1 µM
same,CC50 at 7 days,[2],> 30 µM
